According to ChEMBL document CHEMBL4316582, “Nitro-Group-Containing Drugs” (J Med Chem, 2019):

Tests used:
[1] = test system: HT-29; experiment: Cytotoxicity against human HT-29 cells assessed as reduction in cell viability after 2 hrs in presence of PF477736 by Alamar blue assay; format: functional, cell-based; conditions: HT-29, 2 h
[2] = test system: NCI-H460; experiment: Cytotoxicity against human NCI-H460 cells assessed as reduction in cell viability after 2 hrs in presence of PF477736 by Alamar blue assay; format: functional, cell-based; conditions: NCI-H460, 2 h
[3] = test system: NCI-H460; experiment: Cytotoxicity against human NCI-H460 cells assessed as reduction in cell viability after 2 hrs in presence of AZD7765 by Alamar blue assay; format: functional, cell-based; conditions: NCI-H460, 2 h
[4] = test system: DU-145; experiment: Cytotoxicity against human DU145 cells assessed as reduction in cell viability after 2 hrs in presence of AZD7765 by Alamar blue assay; format: functional, cell-based; conditions: DU-145, 2 h
[5] = test system: HeLa; experiment: Cytotoxicity against human HeLa cells assessed as reduction in cell viability after 2 hrs in presence of AZD7765 by Alamar blue assay; format: functional, cell-based
[6] = test system: HT-29; experiment: Cytotoxicity against human HT-29 cells assessed as reduction in cell viability after 2 hrs in presence of LY2603618 by Alamar blue assay; format: functional, cell-based; conditions: HT-29, 2 h
[7] = test system: NCI-H460; experiment: Cytotoxicity against human NCI-H460 cells assessed as reduction in cell viability after 2 hrs in presence of LY2603618 by Alamar blue assay; format: functional, cell-based; conditions: NCI-H460, 2 h
[8] = test system: HeLa; experiment: Cytotoxicity against human HeLa cells assessed as reduction in cell viability after 2 hrs in presence of LY2603618 by Alamar blue assay; format: functional, cell-based
[9] = test system: HT-29; experiment: Cytotoxicity against human HT-29 cells assessed as reduction in cell viability after 2 hrs in presence of AZD7765 by Alamar blue assay; format: functional, cell-based; conditions: HT-29, 2 h
[10] = Cmax in mouse at 10 mg/kg; format: ADME, organism-based; set-up: dose 10 mg/kg; conditions: in vivo
[11] = Tmax in mouse at 10 mg/kg; format: ADME, organism-based; conditions: in vivo
[12] = test system: NCI-H460; experiment: Cytotoxicity against human NCI-H460 cells assessed as reduction in cell viability after 2 hrs under hypoxic conditions by Alamar blue assay; format: functional, cell-based; conditions: NCI-H460, 2 h
[13] = test system: NCI-H460; experiment: Cytotoxicity against human NCI-H460 cells assessed as reduction in cell viability after 2 hrs under normoxic conditions by Alamar blue assay; format: functional, cell-based; conditions: NCI-H460, 2 h
[14] = Clearance in mouse at 10 mg/kg; format: ADME, organism-based; conditions: in vivo
[15] = Half life in mouse at 10 mg/kg; format: ADME, organism-based; conditions: in vivo

SMILES | IC50 [1] [mM] | IC50 [2] [mM] | IC50 [3] [mM] | IC50 [4] [mM] | IC50 [5] [mM] | IC50 [6] [mM] | IC50 [7] [mM] | IC50 [8] [mM] | IC50 [9] [mM] | Cmax [10] [ng/mL] | Tmax [11] [min] | IC50 [12] [µM] | IC50 [13] [mM] | clearance [14] [mL/min/kg] | half-life [15] [min]
Cn1c(COP(=O)(NCCCl)NCCCl)cnc1[N+](=O)[O-] | 57 | 19 | 25 | 80 | 95 | 46 | 22 | 90 | 39 |  |  |  |  |  | 
COc1cccc2c1C(=O)c1c(O)c3c(c(O)c1C2=O)C[C@@](O)(C(C)=O)C[C@@H]3O[C@H]1C[C@H](NCOCCn2ccnc2[N+](=O)[O-])[C@H](O)[C@H](C)O1 |  |  |  |  |  |  |  |  |  | 1820 | 5 | 0.023 | 0.0098 | 188 | 28.8
